Laboratory results published in patent publication US9963448B2, “Bicyclic inhibitors of PAD4” (Padlock Therapeutics, Inc., priority 2015, dated 2018).
Like-named read-outs stand apart in the source and are kept apart here.

Columns and labels:
[1] = biological target: mPAD4 (Mus musculus, UniProt Q9Z183); assay: mPAD4 RFMS PAD4 inhibition assay; type: biochemical; conditions: mPAD4, RFMS readout;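 as to mPAD4 RFMS pIC50: grade E means pIC50 at most 4 and F means pIC50 4.0 to 5.0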
Method: (§1) Compounds of the present invention were assayed as inhibitors of PAD4 using the assay protocol described below.
(§2) Compound stock solutions were stored at RT. […] Final assay conditions were as follows:
(§3) Total incubation time: 65 mins at 37° C.
(§4) Stop solution: 40 μl 5% TCA in ACN
(§5) The compound numbers correspond to the compound numbers in Table 1. […] The term pIC50=−log(IC50). […] “NA” stands for “not assayed.”

[2] = biological target: hPAD4 (Homo sapiens, UniProt Q9UM07); assay: hPAD4 RFMS (RapidFire mass spectrometry) PAD4 inhibition assay; type: biochemical; conditions: hPAD4 enzyme, RFMS readout;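 as to hPAD4 RFMS pIC50: grade E means pIC50 at most 4 and F means pIC50 4.0 to 5.0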
Chain of hPAD4 (Q9UM07 whole entry): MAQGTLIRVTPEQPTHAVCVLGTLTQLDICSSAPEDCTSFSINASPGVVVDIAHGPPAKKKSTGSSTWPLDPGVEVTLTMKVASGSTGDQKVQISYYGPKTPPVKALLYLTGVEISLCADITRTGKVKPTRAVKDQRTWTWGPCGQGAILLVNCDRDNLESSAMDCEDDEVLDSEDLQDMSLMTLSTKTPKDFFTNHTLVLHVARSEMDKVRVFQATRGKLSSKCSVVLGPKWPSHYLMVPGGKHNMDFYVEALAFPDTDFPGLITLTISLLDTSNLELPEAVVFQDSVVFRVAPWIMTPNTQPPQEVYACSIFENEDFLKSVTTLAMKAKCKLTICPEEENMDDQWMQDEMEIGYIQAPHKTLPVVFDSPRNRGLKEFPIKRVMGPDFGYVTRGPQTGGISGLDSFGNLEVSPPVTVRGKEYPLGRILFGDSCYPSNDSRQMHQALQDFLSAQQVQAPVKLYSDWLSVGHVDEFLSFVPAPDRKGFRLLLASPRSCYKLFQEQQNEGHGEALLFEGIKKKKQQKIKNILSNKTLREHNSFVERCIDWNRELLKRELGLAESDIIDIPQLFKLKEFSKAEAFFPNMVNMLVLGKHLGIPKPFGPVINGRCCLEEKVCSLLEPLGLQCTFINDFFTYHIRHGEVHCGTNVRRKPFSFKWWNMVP
Method: as §1, §2, §3, §4, §5

[3] = pIC50=−log(IC50), read-out: mPAD4 RFMS pIC50 (converted)
[4] = pIC50=−log(IC50), read-out: hPAD4 RFMS pIC50 (converted)

Chain of mPAD4 (Q9Z183 whole entry): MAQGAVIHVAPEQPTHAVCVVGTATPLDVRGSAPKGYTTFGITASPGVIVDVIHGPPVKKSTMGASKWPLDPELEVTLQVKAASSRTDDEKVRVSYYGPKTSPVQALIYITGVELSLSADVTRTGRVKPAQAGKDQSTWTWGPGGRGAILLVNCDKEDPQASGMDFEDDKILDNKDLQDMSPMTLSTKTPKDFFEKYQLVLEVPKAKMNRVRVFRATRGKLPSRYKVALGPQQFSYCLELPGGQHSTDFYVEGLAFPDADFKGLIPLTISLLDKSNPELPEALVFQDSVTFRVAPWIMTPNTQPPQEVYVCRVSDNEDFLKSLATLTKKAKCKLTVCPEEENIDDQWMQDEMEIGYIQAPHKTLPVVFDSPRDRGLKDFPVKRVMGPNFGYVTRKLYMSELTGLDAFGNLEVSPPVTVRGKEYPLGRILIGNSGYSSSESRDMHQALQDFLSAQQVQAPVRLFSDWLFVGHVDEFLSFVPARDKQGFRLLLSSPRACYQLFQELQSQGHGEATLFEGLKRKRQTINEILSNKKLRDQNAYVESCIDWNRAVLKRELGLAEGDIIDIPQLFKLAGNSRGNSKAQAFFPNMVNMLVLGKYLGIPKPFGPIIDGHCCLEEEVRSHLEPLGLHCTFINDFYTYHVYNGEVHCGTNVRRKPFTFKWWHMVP

Compound	IC50 [1, 3] [nM]	IC50 ([1]; read-out: mPAD4 RFMS IC50) [nM]	IC50 [2, 4] [nM]	IC50 ([2]; read-out: hPAD4 RFMS IC50) [nM]	mPAD4 RFMS pIC50 ([1]; pIC50=−log(IC50))	hPAD4 RFMS pIC50 ([2]; pIC50=−log(IC50))
COc1cc(C(=O)N2C[C@H]3CC[C@@H]2[C@@H]3N)cc2nc(-c3cc4ccc(C(C)(C)O)nc4n3CC3CC3)n(C)c12 [Compound I-210, 2-(2-{5-[(1R,4R,7R)-7-Amino-2-azabicyclo[2.2.1]heptane-2-carbonyl]-7-methoxy-1-methyl-1H-1,3-benzodiazol-2-yl}-1-(cyclopropylmethyl)-1H-pyrrolo[2,3-b]pyridin-6-yl)propan-2-ol]	< 1000	< 1000	< 1000	< 1000		
COc1cc(C(=O)N2CCC[C@@H](N)C2)cc2nc(-c3cc4ccc(C(C)(C)O)nc4n3CC3CC3)n(C)c12 [Compound I-211]	< 1000	< 1000	< 1000	< 1000		
COc1cc(C(=O)N2C[C@@H]3CC[C@H]2[C@@H](N)C3)cc2nc(-c3cc4cccnc4n3CC3CC3)n(C)c12 [Compound I-212]	10000 to 100000	> 10000	10000 to 100000	> 10000		
COc1cc(C(=O)N2C[C@H]3CC[C@@H]2[C@@H]3N)cc2nc(-c3cc4cccnc4n3CC3CC3)n(CC[S+](C)[O-])c12 (stereo partly drawn) [Compound I-213, (1R,4R,7R)-2-{2-[1-(Cyclopropylmethyl)-1H-pyrrolo[2,3-b]pyridin-2-yl]-1-(2-methanesulfinylethyl)-7-methoxy-1H-1,3-benzodiazole-5-carbonyl}-2-azabicyclo[2.2.1]heptan-7-amine]	< 1000	< 1000	< 1000	< 1000		
COc1cc(C(=O)N2C[C@H]3CC[C@@H]2[C@@H]3N)cc2nc(-c3cc4cccnc4n3CC3CC3)n(CCS(C)(=O)=O)c12 [Compound I-214, (1R,4R,7R)-2-{2-[1-(cyclopropylmethyl)-1H-pyrrolo[2,3-b]pyridin-2-yl]-1-(2-methanesulfonylethyl)-7-methoxy-1H-1,3-benzodiazole-5-carbonyl}-2-azabicyclo[2.2.1]heptan-7-amine]	1000 to 10000	1000 to 5000	< 1000	< 1000		
COc1cc(C(=O)N2C[C@@H]3CC[C@H]2[C@H](N)C3)cc2nc(-c3cc4cccnc4n3CC3CC3)n(C)c12 [Compound I-215]		> 10000		> 10000	E/F	E/F
COc1cc(C(=O)N2C[C@H]3CC[C@@H]2[C@@H](N)C3)cc2nc(-c3cc4cccnc4n3CC3CC3)n(C)c12 [Compound I-216]	10000 to 100000	> 10000	10000 to 100000	> 10000		
COc1cc(C(=O)N2C[C@H]3CC[C@@H]2[C@@H]3N)cc2nc(-c3cc4cccnc4n3CC3CC3)n(CC3CCOC3)c12 (some centres unmarked) [Compound I-217]	< 1000	< 1000	< 1000	< 1000		
CCn1c(-c2nc3cc(C(=O)N4C[C@H]5CC[C@@H]4[C@@H]5N)cc(OC)c3n2[C@H]2C[C@@H](OC)C2)cc2cccnc21 [Compound I-218]	1000 to 10000	1000 to 5000	1000 to 10000	1000 to 5000		
COc1cc(C(=O)N2C[C@H]3CC[C@@H]2[C@@H]3N)cc2nc(-c3cc4cccnc4n3CC3CC3)n([C@H]3C[C@@H](OC)C3)c12 [Compound I-219]	1000 to 10000	1000 to 5000	< 1000	< 1000		
COc1cc(C(=O)N2C[C@H]3CC[C@@H]2[C@@H]3N)cc2nc(-c3cc4cc(F)cnc4n3CC3CC3)n(C)c12 [Compound I-222]	< 1000	< 1000	< 1000	< 1000		
CO[C@]1(C)C[C@H](Cn2c(-c3cc4cccnc4n3CC3CC3)nc3cc(C(=O)N4C[C@H]5CC[C@@H]4[C@@H]5N)cc(F)c32)C1 [Compound I-223]	< 1000	< 1000	< 1000	< 1000		
COc1cc(C(=O)N2C[C@H]3CC[C@@H]2[C@@H]3N)cc2nc(-c3cc4cccnc4n3CC3CC3)n([C@H]3C[C@H](F)C3)c12 [Compound I-224]	< 1000	< 1000	< 1000	< 1000		
COc1cc(C(=O)N2C[C@H]3CC[C@@H]2[C@@H]3N)cc2nc(-c3cc4cccnc4n3CC3CC3)n([C@H]3C[C@@H](F)C3)c12 [Compound I-225]	< 1000	< 1000	< 1000	< 1000		
COc1ccc2cc(-c3nc4cc(C(=O)N5C[C@H]6CC[C@@H]5[C@@H]6N)cc(F)c4n3C)n(CC3CC3)c2n1 [Compound I-230]	< 1000	< 1000	< 1000	< 1000		
COc1cc(C(=O)N2C[C@H]3CC[C@@H]2[C@@H]3N)cc2nc(-c3cc4cccnc4n3CC3CC3)n(C[C@H]3CCOC3)c12 [Compound I-231]	< 1000	< 1000	< 1000	< 1000		
COc1cc(C(=O)N2C[C@H]3CC[C@@H]2[C@@H]3N)cc2nc(-c3cc4cccnc4n3CC3CC3)n(C[C@@H]3CCOC3)c12 [Compound I-232]	< 1000	< 1000	< 1000	< 1000		
COc1cc(C(=O)N2C[C@H]3CC[C@@H]2[C@@H]3N)cc2nc(-c3cc4cccnc4n3CC3CC3)n(CC(F)F)c12 [Compound I-233]	< 1000	< 1000	< 1000	< 1000		
COc1cc(C(=O)N2C[C@H]3CC[C@@H]2[C@@H]3N)cc2nc(-c3cc4cccnc4n3CC3CC3)n(CC(F)F)c12 [Compound I-234]	1000 to 10000	1000 to 5000		< 1000		H (pIC50 of ≥6)
COc1cc(C(=O)N2C[C@H]3CC[C@@H]2[C@@H]3N)cc2nc(-c3cc4cccnc4n3CC3CC3)n(CCSC)c12 [Compound I-235]	< 1000	< 1000	< 1000	< 1000		
COc1cc(C(=O)N2C[C@H]3CC[C@@H]2[C@@H]3N)cc2nc(-c3cc4cccnc4n3CC3CC3)n(C[C@H]3C[C@@H](OC)C3)c12 [Compound I-236]	< 1000	< 1000	< 1000	< 1000		
CN[C@@H]1[C@@H]2CC[C@H]1N(C(=O)c1cc(OC)c3c(c1)nc(-c1cc4cccnc4n1CC1CC1)n3C)C2 [Compound I-237, (1R,4R,7R)-2-{2-[1-(Cyclopropylmethyl)-1H-pyrrolo[2,3-b]pyridin-2-yl]-7-methoxy-1-methyl-1H-1,3-benzodiazole-5-carbonyl}-N-methyl-2-azabicyclo[2.2.1]heptan-7-amine]	10000 to 100000	> 10000	10000 to 100000	> 10000		
[2H]C([2H])([2H])OC1(C)CC(Cn2c(-c3cc4cccnc4n3CC3CC3)nc3cc(C(=O)N4C[C@H]5CC[C@@H]4[C@@H]5N)cc(OC)c32)C1 (stereo partly drawn) [Compound I-238, (1R,4R,7R)-2-{2-[1-(cyclopropylmethyl)-1H-pyrrolo[2,3-b]pyridin-2-yl]-7-methoxy-1-{[3-(^2H3)methoxy-3-methylcyclobutyl]methyl}-1H-1,3-benzodiazole-5-carbonyl}-2-azabicyclo[2.2.1]heptan-7-amine]	< 1000	< 1000	< 1000	< 1000		
